Experimental data published in patent publication US5395827A, “ω-[2-(phosphonoalkyl)phenyl]-2-aminoalkanoic acids as antagonists of excitatory amino acid receptors” (priority 1993, dated 1995).

Experiments:
kainate receptors = settings: U.S. Pat. No. 4,657,899, Table I on column 13; cited from earlier work
NMDA = settings: U.S. Pat. No. 4,657,899; cited from earlier work
PTZ-induced seizures = test: Protection against pentylenetetrazole (PTZ)-induced seizures; format: in vivo, mouse (male CF-1); settings: for ED50: Mus musculus, ip, 0.5 h, i.p.; for ED50 / ED50 against PTZ-induced seizures, i.c.v.: 30 min before s.c. PTZ 85 mg/kg
Procedure: Animals were then placed in individual observation cages and monitored for 30 min for the appearance of clonic convulsions. Failure to observe a clonic convulsion lasting at least 5 sec during the observation period was considered evidence of anticonvulsant activity.
PTZ seizure studies were performed as described in the text.

[1] = biological target: kainic acid (KA) receptor; test: Inhibition of KA-induced currents in rat brain mRNA-injected Xenopus oocytes; format: cell-based; settings: for Ki, inhibition of KA-induced currents: Table I, Xenopus oocytes injected with rat brain mRNA, IC50 converted by Cheng-Prusoff equation; for Ki: read-out: Ki values (Table I)
Procedure: (§1) Defolliculated oocytes obtained from Xenopus laevis females were injected with 30-75 ng of poly (A^+) mRNA obtained from 21-day old male Sprague-Dawley rats. Oocytes are placed individually in […] of antibiotic-supplemented modified Barthes solution (MBS, containing in mM: NaCl, 88; KCl, 1.0; NaHCO3, 2.4; HEPES, 10; MgSO4, 0.82; Ca(NO3)2, 0.33) in 96-well sterile plates and cultured for 48-120 hours prior to experimentation. Oocytes are inspected every 24 hours at which time the bathing solution is replaced with fresh MBS.
(§2) For electrophysiological studies, oocytes are positioned in a small recording chamber ([…]) and superfused with antibiotic-free MBS supplemented with CaCl2 (final concentration=1.4 mM). For NMDA studies, MgSO4 is replaced with NaSO4 (0.55 mM). Oocytes are impaled with a single glass microelectrode, voltage-clamped at -60 to -70 mV, and perfused by gravity feed at a rate of 3-5 ml/min at room temperature. Drugs are dissolved in the perfusate (pH adjusted to 7.3-7.4) and perfused for 1-2 min or until the response has reached a plateau, followed by a 4 min perfusion in the absence of drug(s). Antagonists are coperfused with agonists. MBS used in NMDA assays is prepared from "glycine-free", deionized water.
(§3) Potencies to inhibit kainic acid-, AMPA- and NMDA/glycine-induced currents are determined from concentration-response curves. IC50 values and Hill coefficients are determined by analysis of indirect Hill plots. IC50 values are converted to Ki values for comparison purposes using the Cheng-Prusoff equation.

AMPA receptor = test: Inhibition of AMPA-induced currents in rat brain mRNA-injected Xenopus oocytes; format: cell-based; settings: Table I; Xenopus oocytes injected with rat brain mRNA; IC50 converted by Cheng-Prusoff equation
Procedure: as §1, §2, §3

[2] = tested on: choline acetyltransferase (ChAT), marker for striatal cholinergic interneurons; test: Kainic acid-induced striatal toxicity, choline acetyltransferase (ChAT) activity; format: in vivo, rat (male Sprague-Dawley)
Procedure: (§4) Kainic acid-induced lesion studies were performed using rats (male Sprague-Dawley, 200-250 g, Harlan Industries). Animals were anesthetized with Chloropent (1.5 ml/kg) and a cannula was inserted into the corpus striatum at the coordinates A 0.8, V 4.3, L 3.0 (bregma=0) using standard stereotaxic procedures. Compounds were dissolved in dH2 O and neutralized using dilute NaOH, and administered over a period of 2 min in a final volume of […]. Following an additional 2 min the cannula was withdrawn, the incision closed with woundclips, and the animals returned to their home cage for a 3 day recovery period. Kainic acid (10 nmoles) was used to induce striatal lesions. Compound XX (300 nmoles) was coadministered with kainic acid.
(§5) Following decapitation, the corpus striatum ipsiand contralateral to the injection were removed, immediately frozen on dry ice, and stored at -80° C. until assayed. The activities of choline acetyltransferase (ChAT) and glutamic acid decarboxylase (GAD), markers for striatal cholinergic and GABAergic interneurons, respectively, were determined using standard procedures to assess the extent of the lesion.
(§6) Ka-induced lesions were performed as described in the text. The results are expressed as the percentage of enzyme activity in the ipsilateral (injected) striatum relative to enzyme activity in the contralateral (uninjected) striatum. The values represent the mean+standard deviation of 4 (Example I) or 12 (vehicle) determinations.

[3] = tested on: glutamic acid decarboxylase (GAD), marker for striatal GABAergic interneurons; test: Kainic acid-induced striatal toxicity, glutamic acid decarboxylase (GAD) activity; format: in vivo, rat (male Sprague-Dawley)
Procedure: as §4, §5, §6

[4] = coadministered (300 nmoles) with kainic acid (10 nmoles), intrastriatal, 3 day recovery, mean+standard deviation of 4
[5] = coadministration of kainic acid with Example I
[6] = intrastriatal injection of kainic acid alone (10 nmoles)

| SMILES | Ki, inhibition of KA-induced currents [1] [µM] | Ki (AMPA receptor) [µM] | Ki [1] [µM] | further results |
| --- | --- | --- | --- | --- |
| NC(Cc1ccccc1CCP(=O)(O)O)C(=O)O (stereo not drawn) [2-amino-3-[2-(2-phosphonoethyl)phenyl]propanoic acid] | – | – | – | binding affinity for kainate receptors (in words) (kainate receptors): very low binding affinity; NMDA antagonism (in words) (NMDA): antagonists of NMDA |
| NC(Cc1ccccc1CCCP(=O)(O)O)C(=O)O (stereo not drawn) [2-amino-3-[2-(3-phosphonopropyl)phenyl]propanoic acid] | – | – | – | binding affinity for kainate receptors (in words) (kainate receptors): very low binding affinity; NMDA antagonism (in words) (NMDA): antagonists of NMDA |
| NC(Cc1ccccc1CP(=O)(O)O)C(=O)O (stereo not drawn) [2-amino-3-[2-phosphonomethylphenyl]propanoic acid] | – | – | – | binding affinity for kainate receptors (in words) (kainate receptors): very low binding affinity; NMDA antagonism (in words) (NMDA): antagonists of NMDA |
| NC(CCCc1ccccc1CP(=O)(O)O)C(=O)O (stereo not drawn) [2-amino-5-[2-phosphonomethylphenyl]pentanoic acid] | – | – | – | binding affinity for kainate receptors (in words) (kainate receptors): very low binding affinity; NMDA antagonism (in words) (NMDA): antagonists of NMDA |
| O=C(O)C1CN(CCCP(=O)(O)O)CCN1 (stereo not drawn) [CPP, reference compound] | – | – | – | ED50 (PTZ-induced seizures): 7.3 mg/kg; ED50 against PTZ-induced seizures, i.c.v. (PTZ-induced seizures; i.c.v.): 0.15 nmol |
| O=c1[nH]c2cc([N+](=O)[O-])c([N+](=O)[O-])cc2[nH]c1=O [DNQX, reference compound] | 0.1 | 0.25 | – | – |
| Cc1ccc(CCP(=O)(O)O)c(C[C@H](N)C(=O)O)c1 [Example 1, 5-Methyl-2-(2-phosphonoethyl)phenylalanine] | 11 | 13 | < 100 | ED50 (PTZ-induced seizures): 98 mg/kg; potency relative to CPP against PTZ-induced seizures (PTZ-induced seizures; i.c.v.): ~2 times; ED50 against PTZ-induced seizures, i.c.v. (PTZ-induced seizures; i.c.v.): 0.09 nmol; protection against PTZ-induced seizures (in words) (PTZ-induced seizures; mouse, in vivo): dose-dependent protection against PTZ-induced seizures; effect against PTZ-induced seizures following systemic administration (in words) (PTZ-induced seizures; systemic (i.p.) administration, compared with CPP): effective following systemic administration, but was less potent than CPP; ChAT, % Activity of Contralateral Striatum [2, 4]: 98 ± 6%; reduction in ChAT activity [2, 5]: 2%; GAD, % Activity of Contralateral Striatum [3, 4]: 88 ± 17%; reduction in GAD activity [3, 5]: 12% |
| Cl.N[C@@H](Cc1cc(C2CCCCC2)ccc1CCP(=O)(O)O)C(=O)O [Example 12, 5-Cyclohexyl-2-(2-phosphonoethyl) phenylalanine hydrochloride] | 139 | – | – | – |
| Cl.N[C@@H](Cc1cccc(-c2ccccc2)c1CCP(=O)(O)O)C(=O)O [Example 16, 3-Phenyl-2-(2-phosphonoethyl) phenylalanine hydrochloride] | 83 | – | – | – |
| C=C(C)[C@H]1CN[C@H](C(=O)O)[C@H]1CC(=O)O [kainic acid, reference compound] | – | – | – | reduction in ChAT activity [2, 6]: 68%; reduction in GAD activity [3, 6]: 55% |

Continued, in another order:

| Ki, inhibition of KA-induced currents [1] [µM] | Ki (AMPA receptor) [µM] | Ki [1] [µM] | SMILES | further results |
| --- | --- | --- | --- | --- |
| 17 | 50 | < 100 | CCc1ccc(CCP(=O)(O)O)c(C[C@H](N)C(=O)O)c1 [Example 2, 5-Ethyl-2-(2-phosphonoethyl)phenylalanine] | – |
| 10 | 61 | < 100 | N[C@@H](Cc1cc(Br)ccc1CCP(=O)(O)O)C(=O)O [Example 3, 5-Bromo-2-(2-phosphonoethyl)phenylalanine] | – |
| 15 | 48 | < 100 | N[C@@H](Cc1cc(Cl)ccc1CCP(=O)(O)O)C(=O)O [Example 4, 5-Chloro-2-(2-phosphonoethyl)phenylalanine] | – |
| 68 | 167 | < 100 | N[C@@H](Cc1cc(F)ccc1CCP(=O)(O)O)C(=O)O [Example 5, 5-Fluoro-2-(2-phosphonoethyl)phenylalanine] | – |
| 3.6 | 16 | < 100 | N[C@@H](Cc1cc(I)ccc1CCP(=O)(O)O)C(=O)O [Example 6, 5-Iodo-2-(2-phosphonoethyl)phenylalanine] | – |
| 12 | 39 | – | Cc1cc(C)c(CCP(=O)(O)O)c(C[C@H](N)C(=O)O)c1 [Example 7, 3,5-Dimethyl-2-(2-phosphonoethyl)phenylalanine] | – |
| 29 | – | – | CC(C)(C)c1ccc(CCP(=O)(O)O)c(C[C@H](N)C(=O)O)c1 [Example 10, 5-t-Butyl-2-(2-phosphonoethyl)phenylalanine] | – |
| 76 | – | < 100 | N[C@@H](Cc1cc(-c2ccccc2)ccc1CCP(=O)(O)O)C(=O)O [Example 11, 5-Phenyl-2-(2phosphonoethyl)-phenylalanine] | – |
| > 100 | – | – | Cc1cccc(C[C@H](N)C(=O)O)c1CCP(=O)(O)O [Example 15, 3-Methyl-2-(2-phosphonoethyl)phenylalanine] | – |
| > 100 | – | – | CCOC(=O)[C@@H](N)Cc1cc(C)ccc1CCP(=O)(O)O [Example 17, 5-Methyl-2-(2-phosphonoethyl)phenylalanine ethyl ester] | – |
| 13 | – | – | N[C@@H](Cc1ccc([N+](=O)[O-])cc1CCP(=O)(O)O)C(=O)O [Example 22, 4-Nitro-2-(2-phosphonoethyl)phenylalanine] | – |
